What all share (format): biochemical
One assay deals with T1, human recombinant PRMT9 (Homo sapiens, UniProt Q6P2P2).
T1 construct: human recombinant PRMT9 (2–845; N-terminal FLAG-tag, C-terminal His6-tag); FLAG (N); His6 (C); purchased BPS BioScience 79124
T1 sequence (Q6P2P2 2-845): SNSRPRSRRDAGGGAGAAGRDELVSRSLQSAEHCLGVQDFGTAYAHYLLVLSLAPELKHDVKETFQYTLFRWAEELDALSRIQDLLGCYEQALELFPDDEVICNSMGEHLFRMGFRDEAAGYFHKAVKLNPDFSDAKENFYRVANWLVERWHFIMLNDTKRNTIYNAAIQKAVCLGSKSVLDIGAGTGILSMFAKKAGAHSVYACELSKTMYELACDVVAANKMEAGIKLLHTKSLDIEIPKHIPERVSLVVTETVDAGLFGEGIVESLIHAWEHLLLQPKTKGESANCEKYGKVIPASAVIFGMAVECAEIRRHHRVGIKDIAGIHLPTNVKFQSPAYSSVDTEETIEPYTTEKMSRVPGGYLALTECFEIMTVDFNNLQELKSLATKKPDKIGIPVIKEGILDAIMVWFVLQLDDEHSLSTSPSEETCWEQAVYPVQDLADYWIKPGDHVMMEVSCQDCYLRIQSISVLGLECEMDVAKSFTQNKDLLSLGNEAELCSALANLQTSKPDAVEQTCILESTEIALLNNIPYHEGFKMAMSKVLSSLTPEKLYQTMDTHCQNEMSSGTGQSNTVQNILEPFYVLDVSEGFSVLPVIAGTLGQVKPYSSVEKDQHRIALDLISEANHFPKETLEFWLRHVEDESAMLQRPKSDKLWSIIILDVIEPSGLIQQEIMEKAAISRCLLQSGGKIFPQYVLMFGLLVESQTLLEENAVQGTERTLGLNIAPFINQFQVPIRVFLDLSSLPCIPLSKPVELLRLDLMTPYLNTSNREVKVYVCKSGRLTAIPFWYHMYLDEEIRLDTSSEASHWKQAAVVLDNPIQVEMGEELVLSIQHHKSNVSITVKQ
Description: AlphaLISA PRMT9 activity assay (modified BPS kit, biotinylated SF3B2 peptide). The settings on record: for IC50 / PRMT9 IC50: PRMT9 0.105 μM, biotinylated SF3B2 (500–519) peptide 100 nM, SAM 25 μM; for PRMT9 inhibition (in words): in-house AlphaLISA assay. As to the method:
Accordingly, all the enzymatic inhibition data were obtained by performing the assays in these optimized conditions.
The reaction was incubated for 60 min. Afterward, in each well, 5 μL of a 1:100 dilution of Primary antibody 28 (BPS BioScience, #52140Z3) in Detection buffer (BPS BioScience) and 5 μL of anti-Rabbit acceptor beads (PerkinElmer, #AL104C) were added to obtain a final concentration of 20 μg/mL.
For each incubation step, the OptiPlate was sealed with a protective foil to prevent evaporation and contamination. Donor and Acceptor beads were added to the mixture in subdued light.
The 100% activity (positive control) was reached using vehicle (DMSO), while 0% activity (negative control) was obtained without the protein. Data were analyzed by using Excel and Prism software. Values obtained for each compound are mean ± SD determined for three separate experiments.

The next assay addresses T2, PRMT1 (Homo sapiens, UniProt Q99873).
T2 construct: PRMT1 (residues 2–371, C-terminus); with an N-terminal GST-tag; GST (N); purchased Reaction Biology Corporation
The assay is described as follows: HotSpot radioisotope-based filter assay, PRMT1. The settings on record: Figure 2; from IC50 values of ref 31. As to the method: (§1) Then, ^3H-SAM (final concentration of 1 μM) was delivered into the reaction mixture to initiate the reaction. After incubation for 60 min at 30 °C, the reaction mixture was delivered to filter-paper for detection (as assessed by scintillation). Data were analyzed using Excel and GraphPad Prism 6.0 software (GraphPad Software Inc., San Diego, CA) for IC50 curve fits using sigmoidal dose vs response - variable slope (four parameters) equations.

The target of a further assay is T3, PRMT3 (Homo sapiens, UniProt O60678).
T3 construct: PRMT3 (residues 2–531, C-terminus); with an N-terminal His-tag; His (N); purchased Reaction Biology Corporation
T3 sequence (O60678 2-531): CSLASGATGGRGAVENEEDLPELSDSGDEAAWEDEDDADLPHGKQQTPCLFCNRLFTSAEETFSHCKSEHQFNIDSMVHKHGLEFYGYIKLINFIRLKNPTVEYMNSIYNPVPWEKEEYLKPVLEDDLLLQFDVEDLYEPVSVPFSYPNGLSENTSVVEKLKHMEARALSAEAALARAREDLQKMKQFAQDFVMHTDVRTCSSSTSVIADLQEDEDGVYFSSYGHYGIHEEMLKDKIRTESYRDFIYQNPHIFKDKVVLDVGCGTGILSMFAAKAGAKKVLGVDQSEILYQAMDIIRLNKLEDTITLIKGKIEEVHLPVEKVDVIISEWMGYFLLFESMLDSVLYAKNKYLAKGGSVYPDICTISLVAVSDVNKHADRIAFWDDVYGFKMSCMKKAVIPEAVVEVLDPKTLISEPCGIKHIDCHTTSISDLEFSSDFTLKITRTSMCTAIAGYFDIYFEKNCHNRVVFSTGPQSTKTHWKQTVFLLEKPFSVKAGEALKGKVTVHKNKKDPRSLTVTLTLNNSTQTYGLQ
Description: HotSpot radioisotope-based filter assay, PRMT3. The settings on record: Figure 2; from IC50 values of ref 31. As to the method:
as §1

Another assay deals with T4, PRMT4 (Homo sapiens, UniProt Q86X55).
T4 construct: PRMT4 (residues 2–608, C-terminus); with an N-terminal GST-tag; GST (N); purchased Reaction Biology Corporation
T4 sequence (Q86X55 2-608): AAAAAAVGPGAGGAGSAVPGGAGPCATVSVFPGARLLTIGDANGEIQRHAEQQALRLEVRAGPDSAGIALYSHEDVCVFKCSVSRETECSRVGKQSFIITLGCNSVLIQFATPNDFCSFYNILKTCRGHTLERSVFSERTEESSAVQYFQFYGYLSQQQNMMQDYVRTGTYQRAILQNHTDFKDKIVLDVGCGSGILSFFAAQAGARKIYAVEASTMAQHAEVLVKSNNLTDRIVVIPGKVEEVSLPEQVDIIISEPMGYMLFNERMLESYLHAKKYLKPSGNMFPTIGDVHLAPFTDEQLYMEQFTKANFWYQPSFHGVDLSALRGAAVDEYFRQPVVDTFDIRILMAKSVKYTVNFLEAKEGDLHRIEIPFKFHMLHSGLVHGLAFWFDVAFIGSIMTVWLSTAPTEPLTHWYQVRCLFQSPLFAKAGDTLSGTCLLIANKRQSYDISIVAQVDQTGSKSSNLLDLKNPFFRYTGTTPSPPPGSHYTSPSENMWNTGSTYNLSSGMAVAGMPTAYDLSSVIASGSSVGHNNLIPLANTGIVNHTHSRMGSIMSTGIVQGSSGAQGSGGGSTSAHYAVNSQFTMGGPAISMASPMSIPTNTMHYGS
Description: HotSpot radioisotope-based filter assay, PRMT4. The settings on record: Figure 2; from IC50 values of ref 31. On the procedure:
as §1

The next assay deals with T5, PRMT5/MEP50 complex (Homo sapiens, UniProt O14744).
T5 construct: residues PRMT5 2–637, C-terminus, and MEP50 2–342, C-terminus; FLAG (N); purchased Reaction Biology Corporation
T5 sequence (O14744 2-637): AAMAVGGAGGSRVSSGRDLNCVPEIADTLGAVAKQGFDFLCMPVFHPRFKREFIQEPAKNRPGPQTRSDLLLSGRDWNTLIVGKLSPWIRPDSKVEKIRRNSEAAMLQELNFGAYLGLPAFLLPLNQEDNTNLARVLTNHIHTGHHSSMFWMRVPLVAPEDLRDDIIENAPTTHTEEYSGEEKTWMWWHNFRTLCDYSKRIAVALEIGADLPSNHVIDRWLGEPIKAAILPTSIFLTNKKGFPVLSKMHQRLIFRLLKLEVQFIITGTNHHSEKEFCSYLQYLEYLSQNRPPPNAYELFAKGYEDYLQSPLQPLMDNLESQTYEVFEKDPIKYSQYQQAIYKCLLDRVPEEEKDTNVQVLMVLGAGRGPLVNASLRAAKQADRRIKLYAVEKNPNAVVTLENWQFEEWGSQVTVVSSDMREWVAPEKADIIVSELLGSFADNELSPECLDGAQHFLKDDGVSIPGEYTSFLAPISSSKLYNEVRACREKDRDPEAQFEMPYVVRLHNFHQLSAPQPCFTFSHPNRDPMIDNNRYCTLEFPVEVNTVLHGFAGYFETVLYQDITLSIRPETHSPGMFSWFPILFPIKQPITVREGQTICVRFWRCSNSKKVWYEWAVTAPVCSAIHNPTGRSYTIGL
T5 sequence (Q9BQA1 2-342 partner limits assumed): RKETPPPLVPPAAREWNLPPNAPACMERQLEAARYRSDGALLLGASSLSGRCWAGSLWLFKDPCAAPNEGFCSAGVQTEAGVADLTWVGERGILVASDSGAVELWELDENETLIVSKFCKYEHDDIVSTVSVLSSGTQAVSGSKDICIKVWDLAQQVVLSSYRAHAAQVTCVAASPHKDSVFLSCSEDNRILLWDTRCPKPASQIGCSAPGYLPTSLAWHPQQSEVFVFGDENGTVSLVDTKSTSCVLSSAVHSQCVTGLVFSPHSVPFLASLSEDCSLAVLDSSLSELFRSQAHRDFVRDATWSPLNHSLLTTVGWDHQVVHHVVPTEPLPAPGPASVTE
Description: HotSpot radioisotope-based filter assay, PRMT5. The note with it: Figure 2; from IC50 values of ref 31. As to the method: as §1

For the next assay, the target named is T6, PRMT6 (Homo sapiens, UniProt Q96LA8).
T6 construct: PRMT6 (residues 2–375, C-terminus); with an N-terminal GST-tag; GST (N); purchased Reaction Biology Corporation
T6 sequence (Q96LA8 2-375): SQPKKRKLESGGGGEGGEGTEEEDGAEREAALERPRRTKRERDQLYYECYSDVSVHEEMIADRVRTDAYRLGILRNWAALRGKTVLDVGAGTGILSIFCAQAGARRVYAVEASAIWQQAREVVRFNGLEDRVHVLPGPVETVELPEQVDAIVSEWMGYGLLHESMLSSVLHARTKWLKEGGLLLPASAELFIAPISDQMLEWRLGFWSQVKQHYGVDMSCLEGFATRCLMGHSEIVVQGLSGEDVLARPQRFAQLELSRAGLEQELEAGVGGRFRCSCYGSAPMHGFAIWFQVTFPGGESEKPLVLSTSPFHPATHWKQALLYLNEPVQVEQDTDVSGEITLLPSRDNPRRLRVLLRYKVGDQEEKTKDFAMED
The assay is described as follows: HotSpot radioisotope-based filter assay, PRMT6. The settings on record: Figure 2; from IC50 values of ref 31. On the procedure: as §1

The next assay has as its target T7, PRMT8 (Homo sapiens, UniProt Q9NR22).
T7 construct: (residues 61–394, C-terminus); with C- and N-terminal His-tags; His (N); His (C); purchased Reaction Biology Corporation
Description: HotSpot radioisotope-based filter assay, PRMT8. The note with it: Figure 2; from IC50 values of ref 31. As to the method:
as §1

“Also recorded” adds a separate entry of the source.

T7 sequence (Q9NR22 61-394): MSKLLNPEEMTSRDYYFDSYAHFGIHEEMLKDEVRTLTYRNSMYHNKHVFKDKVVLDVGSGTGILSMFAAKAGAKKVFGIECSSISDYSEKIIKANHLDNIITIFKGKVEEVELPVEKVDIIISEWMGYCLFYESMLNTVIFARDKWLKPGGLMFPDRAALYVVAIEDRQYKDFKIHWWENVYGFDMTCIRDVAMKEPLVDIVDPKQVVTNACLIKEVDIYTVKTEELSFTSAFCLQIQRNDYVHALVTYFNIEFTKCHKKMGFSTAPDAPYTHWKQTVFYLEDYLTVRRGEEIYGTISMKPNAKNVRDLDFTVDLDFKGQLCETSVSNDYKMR
T2 sequence (Q99873 2-371): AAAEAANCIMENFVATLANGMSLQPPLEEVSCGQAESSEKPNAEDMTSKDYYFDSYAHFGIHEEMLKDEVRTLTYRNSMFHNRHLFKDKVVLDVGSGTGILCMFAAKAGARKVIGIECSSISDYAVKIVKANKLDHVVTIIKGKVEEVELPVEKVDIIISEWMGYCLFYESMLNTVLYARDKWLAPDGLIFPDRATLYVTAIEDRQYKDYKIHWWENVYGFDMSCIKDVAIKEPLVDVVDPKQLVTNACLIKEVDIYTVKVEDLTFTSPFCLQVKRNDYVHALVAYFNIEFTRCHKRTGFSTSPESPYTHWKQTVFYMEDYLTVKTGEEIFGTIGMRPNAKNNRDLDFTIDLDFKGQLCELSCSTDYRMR

Take `COC(=O)c1cc(O)c2cc(NC(=O)NCCCCCCNC(=N)NC[C@H]3O[C@@H](n4cnc5c(N)ncnc54)[C@H](O)[C@@H]3O)ccc2c1` [1d]: the IC50 on human recombinant PRMT9 worked out at 1.02 µM.

In the case of `COC(=O)c1cc(O)c2cc(NC(=O)NCCCCCCCNC(=N)NC[C@H]3O[C@@H](n4cnc5c(N)ncnc54)[C@H](O)[C@@H]3O)ccc2c1` [1e], at human recombinant PRMT9, the IC50 amounted to 1.3 µM. Moreover, at PRMT1, the “selectivity index for PRMT7 over PRMT1” value was 4 fold. On PRMT3, the “selectivity index for PRMT7 over PRMT3” value was found to be 20 fold. For the same compound, the “selectivity index for PRMT7 over PRMT4” value at PRMT4 is listed as 0.28 fold. Moreover, the “selectivity index for PRMT7 over PRMT5” value at PRMT5/MEP50 complex is 5 fold. At PRMT6, the “selectivity index for PRMT7 over PRMT6” value came out at 56 fold. For the same compound, the “selectivity index for PRMT7 over PRMT8” value at PRMT8 stood at 9 fold.

Consider `COC(=O)c1cc(O)c2cc(NC(=O)NCCCCNC(=N)NCC[C@H]3O[C@@H](n4cnc5c(N)ncnc54)[C@H](O)[C@@H]3O)ccc2c1` [1f], for which the IC50 on human recombinant PRMT9 came to 1.2 µM. For the same compound, the “selectivity index for PRMT7 over PRMT1” value at PRMT1 is reported as 22 fold. Also, the “selectivity index for PRMT7 over PRMT3” value at PRMT3 is on record as 46 fold. Moreover, the “selectivity index for PRMT7 over PRMT4” value on PRMT4 is 0.04 fold. Besides, the “selectivity index for PRMT7 over PRMT5” value on PRMT5/MEP50 complex is given as 0.51 fold. Moreover, on PRMT6, the “selectivity index for PRMT7 over PRMT6” value is recorded as 100 fold. Besides, on PRMT8, the “selectivity index for PRMT7 over PRMT8” value stood at 27 fold.

As to `COC(=O)c1cc(O)c2cc(NC(=O)NCCCCNC(=N)NCCC[C@H]3O[C@@H](n4cnc5c(N)ncnc54)[C@H](O)[C@@H]3O)ccc2c1` [1g], the IC50 at human recombinant PRMT9 was over 10 µM. Further, the “selectivity index for PRMT7 over PRMT1” value at PRMT1 is 0.38 fold. Moreover, the “selectivity index for PRMT7 over PRMT3” value at PRMT3 came to 3 fold. The “selectivity index for PRMT7 over PRMT4” value on PRMT4 is listed as 0.002 fold. For the same compound, the “selectivity index for PRMT7 over PRMT5” value at PRMT5/MEP50 complex worked out at 0.17 fold. For the same compound, the “selectivity index for PRMT7 over PRMT6” value at PRMT6 was found to be 0.93 fold. In addition, the “selectivity index for PRMT7 over PRMT8” value on PRMT8 came out at 0.3 fold.

In the case of `CCOC(=O)c1cc2cc(NC(=O)CNC(=O)Nc3ccc([N+](=O)[O-])cc3)ccc2[nH]1` [EML105], at human recombinant PRMT9, the “PRMT9 IC50” value is “no inhibition” and the “PRMT9 inhibition (in words)” value is recorded as “no PRMT9 inhibition; also recorded: no activity”.

Consider `COC(=O)c1cc(O)c2cc(NC(=O)Nc3ccc4cc(C(=O)OC)cc(O)c4c3)ccc2c1` [EML107], for which, at human recombinant PRMT9, the “PRMT9 IC50” value is reported as “no inhibition” and the “PRMT9 inhibition (in words)” value is recorded as “no PRMT9 inhibition; also recorded: no activity”.

`O=C(Nc1ccc2cc(C(=O)O)cc(O)c2c1)Nc1ccc2cc(C(=O)O)cc(O)c2c1` [EML108]: on human recombinant PRMT9, the “PRMT9 IC50” value is “no inhibition” and the “PRMT9 inhibition (in words)” value is listed as “no PRMT9 inhibition; also recorded: no activity”.

With `O=C(Nc1ccc2[nH]cc(C(=O)O)c2c1)Nc1ccc2[nH]cc(C(=O)O)c2c1` [EML145], at human recombinant PRMT9, the “PRMT9 IC50” value is reported as “no inhibition” and the “PRMT9 inhibition (in words)” value was “no PRMT9 inhibition; also recorded: no activity”.

As to `COC(=O)c1c[nH]c2ccc(NC(=O)CC(=O)Nc3ccc4[nH]cc(C(=O)OC)c4c3)cc12` [EML147], on human recombinant PRMT9, the “PRMT9 IC50” value was “no inhibition” and the “PRMT9 inhibition (in words)” value is on record as “no PRMT9 inhibition; also recorded: no activity”.

With `O=C(CC(=O)Nc1ccc2[nH]cc(C(=O)O)c2c1)Nc1ccc2[nH]cc(C(=O)O)c2c1` [EML148], on human recombinant PRMT9, the “PRMT9 IC50” value was “no inhibition” and the “PRMT9 inhibition (in words)” value was “no PRMT9 inhibition; also recorded: no activity”.
